Columns and labels:
[1] = in vivo
Experimental: Liver, heart, kidneys, spleen, brain, sternum and spinal cord (cervical thoracic and lumbar) were fixed in formalin, paraffin-embedded, sectioned with a thickness of 4 μm, and stained with H&E. Tissues were analyzed by a board-certified pathologist to investigate treatment-mediated toxicity. These analyses were performed by a board certified pathologist.

[2] = system: LS174T tumors; experiment: E-S mediated cancer-selective labeling in vivo, western blot analysis of tissues; design: species or system athymic nude mice; settings: i.v. once daily three days, 24 h p.i.; liver, spleen, heart, lung, kidney
Experimental: (1) Western blot analysis of tissues. LS174T tumor models were established in 6 week-old athymic nude mice by subcutaneous injection of LS174T colon cancer cells (1.5 million) in HBSS/matrigel (1/1, v/v). When the tumors grew to 5-6 mm, E-S (60 mg/kg) was i.v. injected once daily for three days. Mice i.v. administered with Ac4ManAz (40 mg/kg, 10% DMSO in PBS) or PBS were used as control. At 24 h post the last injection, tumors and major organs were harvested, transferred into lysis buffer (2 mL), and homogenized. The lysates were incubated at 4° C. for 30 min, and insoluble debris was removed by centrifugation at 3000 rpm for 10 min. Total soluble protein concentrations were determined by BCA assay and adjusted to 5 mg/mL for each group. The rest of procedures were the same as the abovementioned general procedures for western blot analysis. Azido-labeled protein bands in tumor tissues and healthy tissues of all three groups were visualized and compared to understand the cancer-selective labeling capability of E-S in vivo.

[3] = system: LS174T cells; experiment: Western blot analysis of LS174T cells treated with azido-sugars; format: cell-based; settings: 72 h
Experimental: Western blot analysis of cells treated with azido-sugars. LS174T cells were seeded onto cell culture flasks (25 cm^2 growth area) at a density of 1×10^6 cells per plate in 5 mL of media. Different azido-sugars were added and incubated with cells for 72 h. The cells were washed with PBS twice and harvested from the flasks using a cell scraper. Cells were pelleted by centrifugation at 1000 rpm for 5 min and re-suspended in 200 μL of lysis buffer (1% SDS, 100 mM Tris.HCl, pH 7.4) containing 1 tablet protease inhibitor (EDTA-free). The lysate was incubated at 4° C. for 30 min, followed by centrifugation at 3000 rcf for 10 min to remove insoluble debris. The total concentration of soluble protein in each sample was determined by bicinchoninic acid (BCA) assay and adjusted to the same concentration. Then 20 μL of the lysate was taken out and incubated with phosphine-PEG3-biotin (2 μL, 5 mM in PBS) at 37° C. for 6 h. Loading buffer was added to each sample and samples were loaded onto 10% SDS-PAGE gel after heating at 95° C. After running the gel for 100 min, proteins were transferred to Hybond P membrane, followed by blocking of the membrane with 5% bovine serum albumin (BSA) in TBST (50 mM Tris.HCl, 150 mM NaCl, 0.1% Tween 20, pH 7.4) for 2 h. The membrane was then incubated with streptavidin-HRP (diluted 1:2000 in TBST) overnight at 4° C., rinsed with TBST for three times and developed by ECL Western Blotting Substrate. For fluorescent visualization of protein bands, 20 μL of cell lysate was directly incubated with DBCO-Cy3 solution for 3 h. After the gel running and membrane transfer, protein bands were visualized using an Image Quant LAS 4010 system with a Cy3/Cy3 (excitation/emission) channel.

[4] = system: subcutaneous LS174T tumors; experiment: In vivo tumor labeling after intratumoral injection of azido-sugars, DBCO-Cy5 i.v.; design: species or system athymic nude mice
Experimental: In vivo tumor labeling of Ac4ManAz, Ac3ManAzEt, and Ac3ManAzNB. LS174T tumor models were established on 6 week-old athymic nude mice by subcutaneous injection of LS174T colon cancer cells (1.5 million) in HBSS/matrigel (1/1, v/v) to both flanks. When the tumors grew to 5-6 mm, Ac4ManAz or Ac3ManAzEt or Ac3ManAzNB (25 mM, 20 μL) was injected into the left tumors once daily for three days while the same amount of PBS was injected to the right tumors as control (N=3 per group). At 24 h post the last injection, DBCO-Cy5 (5 mg/kg) was i.v. injected and its biodistribution was monitored via in vivo fluorescence imaging. Prior to imaging, nude mice were placed on the sample stage equipped with anesthesia input and output ports, and imaged by the Maestro In-Vivo Fluorescence Imaging System. The excitation filter of 575-605 nm was used. The tunable emission filter was automatically stepped in 10-nm increments from 630 to 850 nm with an exposure time of 50 ms for images taken at each wavelength. Collected images were analyzed by the Maestro software, which uses spectral unmixing algorithms to subtract autofluorescence from Cy5 signals. Tumors and major organs were harvested from mice at 24 h post injection of DBCO-Cy5. Ex vivo images were collected similarly using the Maestro system. Fluorescence intensity at selected ROIs was quantified using Maestro imaging software. All values were presented as means±standard deviation (n=3).
Western blot analysis of tissues. Tumors and organs harvested from azido-sugar treated mice were transferred into glass tubes containing 2 mL of lysis buffer (1% SDS, 100 mM Tris HCl, pH 7.4), homogenized, and incubated at 4° C. for 30 min. The lysates were then centrifuged at 3000 rcf for 10 min to remove the insoluble debris. Total soluble protein concentrations were determined by BCA assay and adjusted to 5 mg/mL for each group. The rest of procedures were the same as the above-mentioned western blot analysis of cells.
Confocal imaging of tumor tissue sections. After ex vivo imaging, tumors were directly frozen in O.C.T. compound and sectioned on a cryostat (Leica CM3050S) with a thickness of 6-8 μm. DAPI in PBS (2 μg/mL) was added onto the tissue-attaching microscope slides to stain cell nucleus. After 10 min, DAPI solution was removed and tissues were washed with PBS for three times. Coverslips were mounted on the microscope slides with the addition of ProLong Gold antifade reagent, and the prepared sample was stored in dark for confocal imaging.

[5] = system: LS174T colon cancer cells; experiment: Metabolic labeling of LS174T cells with azido-sugars, azides detected by DBCO-Cy5 (confocal imaging, flow cytometry); format: cell-based; settings: LS174T cells
Experimental: General procedures for confocal imaging of azido-sugar labeled cells. Cells were seeded onto coverslips in a 6-well plate at a cell density of 40 k/well. Ac4ManAz or Ac3ManAz derivatives were added with a final concentration of 50 μM and the cells were incubated at 37° C. for 72 h. The medium was removed and washed with PBS for three times. DBCO-Cy5 (50 μM) in Opti-MEM was then added and the cells were incubated for another 1 h. Then the medium was removed and the cells were washed with PBS for three times. 4% paraformaldehyde (PFA) solution was added to fix the cells for 10 min, followed by staining of cell nucleus with DAPI (2 μg/mL) for 10 min. The coverslips were mounted on microscope slides with the addition of ProLong Gold antifade reagent, and the prepared sample was stored in dark for imaging.
General procedures for flow cytometry analysis of azido-sugar labeled cells. Cells were seeded onto coverslips in a 6-well plate at a cell density of 40 k/well. Ac4ManAz or Ac3ManAz derivatives were added and incubated with cells for 72 h. After removal of medium and multiple washing steps, DBCO-Cy5 in opti-MEM was added and incubated with cells at 37° C. for 1 h. The opti-MEM was then removed and cells were washed with PBS for three times. Cells were lifted by incubating with trypsin solution (1 mL) at 37° C. for 3 min and transferred to test tubes with addition of 4% PFA solution (0.5 mL). Twenty thousand cells per sample were analyzed by flow cytometry and data analysis was performed on the FCS Express software.
Ac3ManAzNB mediated controlled cell labeling. LS174T cells were seeded onto coverslips in a 6-well plate at a cell density of 40 k/well. Ac3ManAzNB with a final concentration of 50 μM was added. […] Cells without UV irradiation were continuously incubated for 72 h. Cell samples for confocal imaging and flow cytometry were then prepared following the above-mentioned procedures.
Ac3ManAzHQ mediated controlled cell labeling. LS174T colon cancer cells or Caco-2 colon cancer cells or human fibroblast IMR90 cells were seeded onto coverslips in a 6-well plate at a cell density of 40 k/well and allowed to attach for overnight. Ac3ManAzHQ with a final concentration of 50 μM was added, followed by the addition of curcumin with a final concentration of 50 μM. Cells treated with PBS or Ac3ManAzHQ only were used as control. After 72-h incubation, cell samples for confocal imaging and flow cytometry were prepared following the above-mentioned procedures.
E-S mediated controlled cell labeling in vitro. LS174T colon cancer cells or human fibroblast IMR90 cells were seeded onto coverslips in a 6-well plate at a cell density of 40 k/well. E-S with a final concentration of 50 μM was added, followed by the addition of either TSA (1 μM) or Z-FY-CHO (50 μM). Cells treated with PBS or E-S only were used as the control. After 72-h incubation, the medium was removed and cell samples for confocal imaging and GE-Analyzer measurements were prepared similarly to above-mentioned procedures.

## COc1cccc2c1C(=O)c1c(O)c3c(c(O)c1C2=O)C[C@@](O)(C(=O)CO)C[C@@H]3O[C@H]1C[C@H](N)[C@H](O)[C@H](C)O1 [Doxo, doxorubicin]
[1]
  Toxicity in mouse tissues (bone marrow, spleen): much greater toxicity

## CC(=O)OC[C@H]1OC(OC(C)=O)[C@@H](NC(=O)CN=[N+]=[N-])[C@@H](OC(C)=O)[C@@H]1OC(C)=O (stereo partly drawn) [Ac4ManAz, tetraacetyl N-azidoacetylmannosamine]
[2]
  Azido-modified proteins in normal tissues (western blot): non-specific labeling in normal tissues
[3]
  Western blot of azido-glycoproteins (biotinylated with phosphine-PEG3-biotin): a series of protein bands
[4]; 24 h p.i. of i.v. DBCO-Cy5
  In vivo Cy5 fluorescence intensity of pretreated left tumors vs control right tumors: much stronger Cy5 fluorescence intensity
[4]; ex vivo imaging of tumors
  Ex vivo increase in Cy5 FI compared to the control tumors: over 4 fold
[4]; intratumoral once daily for three days, tumors harvested 24 h p.i.
  Western blot of tumors (azido-modified glycoproteins): a series of azido-modified glycoproteins
[4]; tumor sections after ex vivo imaging
  Cy5 fluorescence of tumor sections (confocal imaging): strong Cy5 fluorescence
[5]; 50 μM azido-sugar three days (72 h), then DBCO-Cy5 1 h
  Cy5 fluorescence on the cell surface (CLSM): strong Cy5 fluorescence on the cell surface
[5]; compared with cells treated with Ac3ManAzEt or PBS
  Cy5 fluorescence by flow cytometry: significantly enhanced Cy5 fluorescence

— US11014953B2, “Trigger-activatable metabolic sugar precursors for cancer-selective labeling and targeting” (priority 2015, dated 2021)
